# According to patent publication US5602134A, “Positive inotropic and lusitropic pyrroloquinolinone derivatives” (Janssen Pharmaceutica N.V., priority 1993, dated 1997):
# Counter-ions that a name gives are not always drawn. Like-named read-outs stand apart in the source and are kept apart here.
# Assays:
# [1] = target: T1, canine heart phosphodiesterase PDE III (Canis lupus familiaris, UniProt A0A8I3NYE0); assay: Inhibition of Phosphodiesterase Type III (PDE III); assay type: biochemical; settings: 10 min at 37° C., pH 7.1
# T1 construct: canine heart phosphodiesterase PDE III; from tissue; host or cells: canine heart
# T1 sequence (A0A8I3NYE0 1-1135): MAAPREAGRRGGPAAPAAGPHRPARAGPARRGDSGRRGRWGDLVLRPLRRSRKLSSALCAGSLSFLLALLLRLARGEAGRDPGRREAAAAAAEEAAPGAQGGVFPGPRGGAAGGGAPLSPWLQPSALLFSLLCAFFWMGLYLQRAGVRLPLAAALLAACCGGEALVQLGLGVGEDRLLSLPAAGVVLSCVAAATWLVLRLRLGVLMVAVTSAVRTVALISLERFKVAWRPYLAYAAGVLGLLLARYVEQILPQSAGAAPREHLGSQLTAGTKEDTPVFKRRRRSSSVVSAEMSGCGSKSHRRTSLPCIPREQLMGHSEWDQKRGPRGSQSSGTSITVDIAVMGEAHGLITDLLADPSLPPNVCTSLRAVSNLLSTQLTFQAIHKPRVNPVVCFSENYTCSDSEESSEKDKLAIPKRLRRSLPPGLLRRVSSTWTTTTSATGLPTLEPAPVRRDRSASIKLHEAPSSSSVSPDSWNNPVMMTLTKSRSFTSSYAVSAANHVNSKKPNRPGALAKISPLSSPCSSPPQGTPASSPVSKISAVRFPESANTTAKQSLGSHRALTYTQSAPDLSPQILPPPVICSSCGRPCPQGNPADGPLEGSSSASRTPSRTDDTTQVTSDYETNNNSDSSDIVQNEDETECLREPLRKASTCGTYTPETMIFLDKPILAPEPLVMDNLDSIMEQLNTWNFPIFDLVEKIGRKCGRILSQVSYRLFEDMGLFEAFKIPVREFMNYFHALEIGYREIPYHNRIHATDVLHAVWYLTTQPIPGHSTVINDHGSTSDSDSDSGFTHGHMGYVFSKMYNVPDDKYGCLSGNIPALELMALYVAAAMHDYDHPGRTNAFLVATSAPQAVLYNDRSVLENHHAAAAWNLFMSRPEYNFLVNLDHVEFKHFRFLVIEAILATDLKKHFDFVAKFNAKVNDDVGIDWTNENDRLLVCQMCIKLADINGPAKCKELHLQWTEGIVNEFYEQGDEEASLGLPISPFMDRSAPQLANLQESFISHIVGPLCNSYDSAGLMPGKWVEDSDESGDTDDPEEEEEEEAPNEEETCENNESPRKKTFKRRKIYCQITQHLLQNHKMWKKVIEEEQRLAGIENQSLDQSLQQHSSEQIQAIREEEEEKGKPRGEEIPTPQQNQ
# Procedure: The positive inotropic and lusitropic effect of the instant compounds was assessed by an in vitro assay system to detect inhibiting effect on the phosphodiesterase type III and in an in vivo experiment in closed-chest anesthetized dogs by monitoring cardiac and haemodynamic effects of an intravenous bolus injection of the instant compounds. […] Inhibition of Phosphodiesterase Type III (PDE III) […] For every preparation,time- and concentration-dependent changes in cyclic nucleotide hydrolysis were measured. […] The enzymatic activity was started by addition of substrate and stopped 10 min later after the tubes were transferred to a waterbath at 100° C. for 40 sec. After the tubes had been cooled to room temperature, alkaline phosphatase (0.25 g/ml) was added and the mixture was left at 37° C. for 20 min. The mixture was subsequently applied to a 1-ml DEAE-Sephadex A-25 column and washed twice with 3 ml of 20 mM Tris-HCl at pH 7.4. The ^3 H-labeled reaction products in the eluate were quantified by liquid scintillation counting. The inhibiting effect of the present compounds on canine heart phosphodiesterase PDE III was measured at different concentrations of the instant compounds. The IC50 values were calculated graphically from the thus obtained inhibition values.
# [2] = tested on: Beagle dogs; assay: Positive inotropy and lusitropy, blood pressure and heart rate in anaesthetized closed-chest dogs; assay type: in vivo, Beagle dog; settings: Canis lupus familiaris, iv, 5 min, 5 min after i.v. administration, n = 3, relative to premedication values
# Procedure: The positive inotropic and lusitropic effect of the instant compounds was assessed by an in vitro assay system to detect inhibiting effect on the phosphodiesterase type III and in an in vivo experiment in closed-chest anesthetized dogs by monitoring cardiac and haemodynamic effects of an intravenous bolus injection of the instant compounds.
# Positive Inotropy and Lusitropy, Blood Pressure and Heart Rate in Dogs
# The test compound was dissolved in an aqueous glucose solution in a concentration of 1 mg.ml^-1. The experiments were performed on 3 Beagle dogs of either sex and varying age, ranging in body weight from 11 to 18 kg (median 13 kg). The animals were intravenously anaesthetized with a mixture of 0.015 mg.kg^-1 scopolamine and 0.05 mg.kg^-1 lofentanil. The animals were intubated with a cuffed endotracheal tube. Intermittent positive pressure ventilation was performed with a mixture of pressurized air and oxygen (60/40), using a volume-controlled ventilator (Siemens Elema). In the control period the CO2 concentration in the expired air (ET CO2), as determined with a capnograph (Gould Godart), was kept at 5 vol % by adjustment of the respiratory volume (resp. rate=20 breaths.min^-1). A continuous intravenous infusion of 0.5 mg.kg^-1.h^-1 of etomidate was started immediately after induction. Body temperature was monitored with a thermistor positioned in the pulmonary artery. To prevent blood clotting heparin, 1000 IU.kg^-1i.v., was administered.
# The electrocardiogram (ECG) was derived from limb leads (standard lead 2). Left ventricular (LVP) and ascending aortic blood pressure (AoP) were measured by retrograde catheterisation via the femoral arteries with high fidelity cathetertip micromanometers (Honeywell). The other femoral vein was cannulated for injection of saline at room temperature into the right atrium and for injection of the test compound. Peak ascending aortic blood flow velocity was measured through the fight carotid artery with an electomagnetic catheter-tip probe connected to a square wave electomagnetic flow meter (Janssen Scientific Instruments). The following variables--inter alia--were calculated on-line, usually at 1 rain intervals: heart rate (HR), diastolic (AoPd) aortic blood pressure, left ventricular end-diastolic pressure (LVEDP), the maximum positive and maximum negative rate of change of isovolumic LVP (LV dp/dtmax and min, respectively), the maximum positive first derivative divided by the actually developed pressure in the left ventricle (LV dp/dtmax /Pd). The time constant (T) of relaxation was measured with the use of an exponential analysis that also estimated the asymptote. After a stabilization period, the animals were treated by intravenous bolus injection of the test compound at 30 min. interval in cumulative doses of 0.0005, 0.001, 0.004, 0.016, 0.064, 0.125 and 0.25 mg/kg.
# [3] = read-out: Calculated dose producing a 15% reduction in diastolic aortic blood pressure (AoPD)
# [4] = read-out: Calculated dose producing a 15% reduction of total systemic vascular resistance (TSR)
# [5] = read-out: Calculated dose producing a 30% increase in cardiac contractility (LV dp/dt max)
# [6] = read-out: Calculated dose producing a 30% increase in heart rate (HR)
IC50 [1] [nM],Structure (SMILES),"ED15 [2, 3] [mg/kg]","ED15 [2, 4] [mg/kg]","ED30 [2, 5] [mg/kg]","ED30 [2, 6] [mg/kg]"
300,"CN1CCC(N(C)C(=O)CCCOc2ccc3nc4c(cc3c2)CC(=O)N4)CC1 [Compound 8, 4-[(2,3-dihydro-2-oxo-1H-pyrrolo[2,3-b]quinolin-6-yl)oxy]-N-methyl-N-(1-methyl-4-piperidinyl)butanamide]",,,,
27,"O=C1Cc2cc3cc(OCCCC(=O)N4CCN(CC5CCCCC5)CC4)ccc3nc2N1 [Compound 16, 1-(cyclohexylmethyl)-4-[4-[(2,3-dihydro-2-oxo-1H-pyrrolo[2,3-b]quinolin-6-yl)oxy]-1-oxobutyl]piperazine dihydrochloride ethanolate(1:1)]",,,,
58,O=C1Cc2cc3cc(OCCCCC(=O)NC4CCN(Cc5ccccc5)CC4)ccc3nc2N1 [Compound 7],,,,
7.6,"CN(C(=O)CCCOc1ccc2nc3c(cc2c1)CC(=O)N3)C1CCCCC1 [Compound 17, N-cyclohexyl-4-[(2,3-dihydro-2-oxo-1H-pyrrolo[2,3-b]quinolin-6-yl)oxy]-N-methylbutanamide hemihydrate]",,,,
1.8,"Cl.O=C1Cc2cc3cc(OCCCCC(=O)N4CCN(CC5CCCCC5)CC4)ccc3nc2N1 [Compound 15, 1-(cyclohexylmethyl)-4-[5-[(2,3-dihydro-2-oxo-1H-pyrrolo[2,3-b]-quinolin-6-yl)oxy]-1-oxopentyl]piperazine monohydrochloride]",0.015,0.003,0.002,0.028

# Second part, the compound before the results:
Structure (SMILES),IC50 [1] [nM],"ED15 [2, 3] [mg/kg]","ED15 [2, 4] [mg/kg]","ED30 [2, 5] [mg/kg]","ED30 [2, 6] [mg/kg]"
"O=C1Cc2cc3cc(OCCCC(=O)N4CCN(CC5CCCCC5)CC4)ccc3nc2N1 [Compound 5, 1-(cyclohexylmethyl)-4-[4-[(2,3-dihydro-2-oxo-1H-pyrrolo[2,3-b]quinolin-6-yl)oxy]-1-oxobutyl]piperazine]",18,> 0.25,0.079,0.008,0.033
"CCOC(=O)CCCCOc1ccc2nc3c(cc2c1)CC(=O)N3 [Compound 2, ethyl 5-[(2,3-dihydro-2-oxo-1H-pyrrolo[2,3-b]quinolin-6-yl]oxy]pentanoate]",62,,,,
"CCOC(=O)CCCOc1ccc2nc3c(cc2c1)CC(=O)N3 [Compound 1, ethyl 4-[(2,3-dihydro-2-oxo-1H-pyrrolo[2,3-b]quinolin-6-yl]oxy]butanoate]",290,,,,
"O=C(O)CCCOc1ccc2nc3c(cc2c1)CC(=O)N3 [Compound 3, 4-[(2,3-dihydro-2-oxo-1H-pyrrolo[2,3-b]quinolin-6-yl)oxy]butanoic acid]",330,,,,
O=C1Cc2cc3cc(OCCCCC(=O)N4CCN(CC5CCCCC5)CC4)ccc3nc2N1 [Compound 6],2.4,,,,
